Measurements as given in US11851391B2, “Antifungal compounds and methods of forming the same” (University of Kentucky Research Foundation, priority 2018, dated 2023).
In brackets after ≈: the same amount, converted by molar mass. Read-outs that look alike come from different tables or passages of the source.

Key:
[1] = system: C. albicans ATCC 90819(R) (strain D); experiment: MIC determination, in vitro antifungal assay (CLSI M27-A3); type: cell-based, Candida albicans; details: Candida albicans, ATCC90819, 48 h, MIC-0, 48 h at 35° C., read-out: MIC
Procedure: (§1) The activity of N,N′-diaryl-bishydrazones 7-22 was tested against a panel of seven strains of C. albicans: ATCC 10231(R) (A), ATCC 64124(R) (B), ATCC MYA-2876(S) (C), ATCC 90819(R) (D), ATCC MYA-2310(S) (E), ATCC MYA-1237(R) (F), and ATCC MYA-1003(R) (G). The activity of these bishydrazones 7-22 was also explored against a panel of three non-albicans Candida strains: C. glabrata ATCC 2001 (H), C. krusei ATCC 6258 (I), and C. parapsilosis ATCC 22019 (J). Finally, the activity of these bishydrazones 7-22 was explored against three Aspergillus strains: A. flavus ATCC MYA-3631 (K), A. nidulans ATCC 38163 (L), and A. terreus ATCC MYA-3633 (M).
(§2) Candida albicans ATCC 10231 (A), C. albicans ATCC 64124 (B), and C. albicans ATCC MYA-2876 (C) were kindly provided by Dr. Jon Y. Takemoto (Utah State University, Logan, UT, USA). C. albicans ATCC 90819 (D), C. albicans ATCC MYA-2310 (E), C. albicans ATCC MYA-1237 (F), C. albicans ATCC MYA-1003 (G), Candida glabrata ATCC 2001 (H), Candida krusei ATCC 6258 (I), Candida parapsilosis ATCC 22019 (J), Aspergillus flavus ATCC MYA-3631 (K), and Aspergillus terreus ATCC MYA-3633 (M) were obtained from the American Type Culture Collection (ATCC; Manassas, VA, USA). Aspergillus nidulans ATCC 38163 (L) was received from Dr. Jon S. Thorson (University of Kentucky, Lexington, KY, USA). Filamentous fungi and yeasts were cultivated at 35° C. in RPMI 1640 medium (with 1-glutamine, without sodium biocarbonate, Sigma-Aldrich, St. Louis, MO) buffered to a pH of 7.0 with 0.165 M morpholinepropanesulfonic acid (MOPS) buffer (Sigma-Aldrich).
(§3) The MIC values of compounds 7a-24c against yeast cells (strains A-J) were determined in 96-well plates as described in the CLSI document M27-A3 with minor modifications. A single colony of freshly prepared yeast cells was used to inoculate 5 mL of yeast extract peptone dextrose (YPD) broth prior to incubation overnight with shaking at 200 rpm at 35° C. From the actively growing yeast culture, 100 μL were then transferred to 900 μL of sterile ddH2O and re-adjusted to achieve OD600 of 0.12 (˜1×10^6 CFU/mL). The cell suspension was further diluted to achieve 2-4×10^3 CFU/mL in RPMI 1640 medium. […] The final concentration of DMSO was ensured to be <1.25% in all experiments. The MIC values for compounds 7a-24c and CAS were defined as the minimum drug concentration that yielded complete inhibition (also known as MIC-0).

[2] = system: C. albicans ATCC 64124(R) (strain B); experiment: as above; type: cell-based, Candida albicans; details: strain B, MIC-0, 48 h at 35° C.
Procedure: as §1, §2, §3

[3] = system: C. albicans ATCC MYA-1237(R) (strain F); experiment: as above; type: cell-based, Candida albicans; details: Candida albicans, 48 h, MIC-0, 48 h at 35° C., read-out: MIC
Procedure: as §1, §2, §3

[4] = system: C. albicans ATCC MYA-2310(S) (strain E); experiment: as above; type: cell-based, Candida albicans; details: MIC-0, 48 h at 35° C.
Procedure: as §1, §2, §3

[5] = system: Aspergillus nidulans ATCC 38163 (strain L); experiment: MIC determination against filamentous fungi (CLSI M38-A2); type: cell-based; details: Aspergillus nidulans, ATCC38163, 48 h, MIC-0, 48 h at 35° C., read-out: MIC
Procedure: as §1, §2
(§4) Similarly, the MIC values of compounds 7a-24c, as well as that of the two control drugs against filamentous fungi (strains K-M) were determined as previously described in CLSI document M38-A2. Spores were harvested from sporulating cultures growing on potato dextrose agar (PDA) by filtration through sterile glass wool and enumerated by using a hemocytometer to obtain the desired inoculum size. […] Spore suspensions were added to the wells to afford a final concentration of 5×10^5 CFU/mL. The plates were incubated at 35° C. for 48 h. The MIC values of compounds 7a-24c and CAS against filamentous fungi were based on the complete inhibition of growth when compared to the growth control (MIC-0). […] Each test was performed in triplicate.

[6] = system: Aspergillus flavus ATCC MYA-3631 (strain K); experiment: as above; type: cell-based; details: Aspergillus flavus, 48 h, MIC-0, 48 h at 35° C., read-out: MIC
Procedure: as §1, §2, §4

[7] = system: Aspergillus terreus ATCC MYA-3633 (strain M); experiment: as above; type: cell-based; details: Aspergillus terreus, 48 h, MIC-0, 48 h at 35° C., read-out: MIC
Procedure: as §1, §2, §4

[8] = system: Candida glabrata ATCC 2001 (strain H); experiment: MIC determination, in vitro antifungal assay (CLSI M27-A3); type: cell-based; details: MIC-0, 48 h at 35° C.
Procedure: as §1, §2
(§5) A single colony of freshly prepared yeast cells was used to inoculate 5 mL of yeast extract peptone dextrose (YPD) broth prior to incubation overnight with shaking at 200 rpm at 35° C. From the actively growing yeast culture, 100 μL were then transferred to 900 μL of sterile ddH2O and re-adjusted to achieve OD600 of 0.12 (˜1×10^6 CFU/mL). The cell suspension was further diluted to achieve 2-4×10^3 CFU/mL in RPMI 1640 medium. […] The final concentration of DMSO was ensured to be <1.25% in all experiments.

[9] = system: Candida krusei ATCC 6258 (strain I); experiment: as above; type: cell-based; details: MIC-0, 48 h at 35° C.
Procedure: as §1, §2, §5

[10] = system: Candida albicans ATCC 10231(R) (strain A); experiment: as above; type: cell-based; details: MIC-0 (no visible growth), 48 h at 35° C.
Procedure: as §1, §2, §3

[11] = system: Candida parapsilosis ATCC 22019 (strain J); experiment: as above; type: cell-based; details: strain J, MIC-0, 48 h at 35° C.
Procedure: as §1, §2, §3

[12] = system: C. albicans ATCC MYA-1003(R) (strain G); experiment: as above; type: cell-based, Candida albicans; details: Candida albicans, 48 h, MIC-0, 48 h at 35° C., read-out: MIC
Procedure: as §1, §2, §5

[13] = system: C. albicans ATCC MYA-2876(S) (strain C); experiment: as above; type: cell-based, Candida albicans; details: MIC-0, 48 h at 35° C.
Procedure: as §1, §2, §5

[14] = Candida albicans, ATCC64124, 48 h, read-out: MIC
[15] = Candida albicans, 48 h, read-out: MIC
[16] = Nakaseomyces glabratus, ATCC2001, 48 h, read-out: MIC
[17] = Pichia kudriavzevii, ATCC6258, 48 h, read-out: MIC
[18] = Candida albicans, ATCC10231, 48 h, read-out: MIC
[19] = Lodderomyces parapsilosis, ATCC22019, 48 h, read-out: MIC

MIC [1]	MIC [2, 14]	MIC [3]	MIC [4, 15]	MIC [5]	MIC [6]	MIC [7]	MIC [8, 16]	MIC [9, 17]	MIC [10, 18]	MIC [11, 19]	MIC [12]	MIC [13, 15]	MIC [2]	MIC [4]	MIC [8]	MIC [9]	MIC [10]	MIC [11]	MIC [13]	SMILES
> 31.3 µg/mL	> 31.3 µg/mL	> 31.3 µg/mL	> 31.3 µg/mL	> 31.3 µg/mL	> 31.3 µg/mL	> 31.3 µg/mL	> 31.3 µg/mL	> 31.3 µg/mL	31.3 µg/mL (≈ 67.7 µM)	> 31.3 µg/mL	> 31.3 µg/mL	> 31.3 µg/mL								Fc1ccc(F)c(N/N=C/c2ccc(-c3ccc(/C=N/Nc4cc(F)ccc4F)cc3)cc2)c1 [Compound 21b]
31.3 µg/mL (≈ 73.4 µM)	> 31.3 µg/mL	> 31.3 µg/mL	> 31.3 µg/mL	31.3 µg/mL (≈ 73.4 µM)	> 31.3 µg/mL	> 31.3 µg/mL	> 31.3 µg/mL	3.9 µg/mL (≈ 9.14 µM)	3.9 µg/mL (≈ 9.14 µM)	> 31.3 µg/mL	15.6 µg/mL (≈ 36.6 µM)	15.6 µg/mL (≈ 36.6 µM)								Fc1ccccc1N/N=C/c1ccc(-c2ccc(/C=N/Nc3ccccc3F)cc2)cc1 [Compound 10b]
31.3 µg/mL (≈ 65.4 µM)	0.98 to 3.9 µg/mL (≈ 2.05 to 8.15 µM)	31.3 µg/mL (≈ 65.4 µM)	15.6 µg/mL (≈ 32.6 µM)	> 31.3 µg/mL	> 31.3 µg/mL	> 31.3 µg/mL	15.6 µg/mL (≈ 32.6 µM)	0.98 to 3.9 µg/mL (≈ 2.05 to 8.15 µM)	0.98 to 3.9 µg/mL (≈ 2.05 to 8.15 µM)	15.6 µg/mL (≈ 32.6 µM)		15.6 µg/mL (≈ 32.6 µM)	0.98 µg/mL (≈ 2.05 µM)	15.6 µg/mL (≈ 32.6 µM)	15.6 µg/mL (≈ 32.6 µM)	0.98 µg/mL (≈ 2.05 µM)	0.98 µg/mL (≈ 2.05 µM)	15.6 µg/mL (≈ 32.6 µM)	15.6 µg/mL (≈ 32.6 µM)	COc1cccc(N/N=C(\C)c2ccc(-c3ccc(/C(C)=N/Nc4cccc(OC)c4)cc3)cc2)c1 [Compound 11c]
> 31.3 µg/mL	> 31.3 µg/mL	> 31.3 µg/mL	> 31.3 µg/mL	> 31.3 µg/mL	> 31.3 µg/mL	> 31.3 µg/mL	> 31.3 µg/mL	15.6 µg/mL (≈ 48.4 µM)	31.3 µg/mL (≈ 97.1 µM)	3.9 µg/mL (≈ 12.1 µM)	15.6 µg/mL (≈ 48.4 µM)	> 31.3 µg/mL								N=C(N)N/N=C/c1ccc(-c2ccc(/C=N/NC(=N)N)cc2)cc1 [Compound 24b]
> 31.3 µg/mL	> 31.3 µg/mL	> 31.3 µg/mL	> 31.3 µg/mL	> 31.3 µg/mL	> 31.3 µg/mL	> 31.3 µg/mL	> 31.3 µg/mL	> 31.3 µg/mL	> 31.3 µg/mL	> 31.3 µg/mL	> 31.3 µg/mL	> 31.3 µg/mL								Fc1ccc(F)c(N/N=C/c2ccc(-c3cccc(/C=N/Nc4cc(F)ccc4F)c3)cc2)c1 [Compound 21a]
